# Measurements taken from paper PMC12812009, “Optimization of 4‐Amino‐2‐Pyridone Inhibitors of Proprotein Convertase Subtilisin/Kexin Type 9: Integrating Structure–Activity and Structure–Metabolism Relationships” (Chemmedchem, 2025).
# Columns and labels:
# LDLR protein = test: Western blot of LDLR protein levels in HepG2 cells; assay type: cell-based, human; settings: HepG2, 24 h
# Protocol: (§1) The third step of our functional assay was focused on the most promising compounds from the previous step (6b and 7), looking at the PCSK9 and LDLR protein expressions in HepG2 cells treated with increasing concentrations of the compounds (2.5–5–10 µM). This analysis, conducted in comparison with 5c using a Western blot assay, aimed to provide a more comprehensive understanding of the intracellular activity and efficacy of these novel PCSK9i , further supporting their potential for preclinical development. […] Importantly, LDLR protein levels were increased by compound 7 only at 10 µM (+39%, p < 0.01, Figure 6B) as compared to basal condition.
# (§2) HepG2 cells were seeded at the cellular density of 500,000 cells/well in a 6‐well tray, in 2 mL of complete medium, and incubated as described above. The day after, treatments were prepared in starving medium. The cells were washed once with PBS and then incubated with media containing treatments. […] Total protein content was measured through bicinchoninic acid (BCA) assay (Euroclone, EMP014250), according to manufacturer's instructions. […] Immunobands were detected with Imager Alliance Q9 ATOM Supreme by UVITEC (Cambridge, UK) after 5 min of membranes incubation in the dark with ECL Star solution (EuroClone, EMP001005). Every experimental condition was run in triplicate and the average cell viability and standard deviation was calculated.
# PCSK9 protein = test: Western blot of PCSK9 protein levels in HepG2 cells; assay type: cell-based, human; settings: 10 µM, HepG2, 24 h
# Protocol: as §1, §2
# secreted PCSK9 [1] = test: PCSK9 secretion in culture medium, ELISA on HepG2 supernatants; assay type: cell-based, human; settings: for IC50: HepG2, Table S2, ELISA, non-cytotoxic concentrations, read-out: IC50 ± SD on PCSK9 secreted by HepG2; for decrease of secreted PCSK9 vs. basal: given as decrease
# Protocol: Next, the levels of secreted PCSK9 were quantified by ELISA assay (Figure 5) only on supernatants collected from cells treated with noncytotoxic concentrations of each compound, as reported in Table 1. Simvastatin (Simva) at 20 and 40 μM and berberine (BBR) at 10 μM were included as controls. As described in the literature, simvastatin induces PCSK9 expression as a compensatory mechanism in response to its cholesterol‐lowering effects, being a pharmacological competitor for HMG‐CoA reductase, the rate‐limiting enzyme of the cholesterol biosynthetic pathway.^[ [29] ^] In contrast, BBR, a natural compound, reduces the expression of PCSK9 levels through transcriptional inhibition, thus increasing the LDLR availability on plasma membrane.^[ [30] ^] As additional and distinct mechanism to the latter, BBR is also able to stabilize the transcript of LDLR, thus increasing its half‐life.^[ [31] ^] As expected, cells stimulated with simvastatin released more PCSK9 into the culture medium compared to unstimulated cells, with a statistically significant concentration‐dependent effect (+73% at 20 μM, p < 0.01; +200% at 40 μM, p < 0.0001), while BBR at 10 μM decreased PCSK9 levels in the medium more than 50% (p < 0.0001 vs. basal) (Figure 5).^[ [32] ^] The amount of PCSK9 secreted into the culture media was measured with an appropriate ELISA kit (R&D System, DY3888 and DY008B2) on the supernatants collected during the MTT assay. Every experimental condition was run in duplicate and the average PCSK9 secretion and standard deviation was calculated. A 4PL regression analysis was used to interpolate unknowns with the standard curve using GraphPad Prism v10.2, according to manufacturers’ instructions. The data were normalized onto the corresponding cell viability, and IC50 was then calculated using GraphPad Prism v10.2.
# secreted PCSK9 [2] = test system: secreted PCSK9; design: method as in PMID 38160616; settings: 5 µM; cited from earlier work
# circulating PCSK9 = test system: circulating PCSK9; design: method as in PMID 38160616; settings: mice; cited from earlier work
# [3] = design: method as in PMID 38160616; settings: seven days of daily subcutaneous administration; cited from earlier work
# [4] = Homo sapiens, 10 μM, HepG2, 24 h, read-out: secreted PCSK9 change vs. basal
SMILES,LDLR expression (in words) (LDLR protein; 2.5–5–10 µM),maximal reduction of PCSK9 protein levels vs. basal (PCSK9 protein) [%],IC50 (secreted PCSK9 [1]; Homo sapiens) [nM],"inhibition at 5 µM (secreted PCSK9 [1]; Homo sapiens, 5 μM, HepG2, 24 h, read-out: secreted PCSK9 change vs. basal) [%]",inhibition at 10 µM (secreted PCSK9 [1]; [4]) [%],PCSK9 secretion from HepG2 cells (in words) (secreted PCSK9 [2]),circulating PCSK9 levels in vivo (in words) (circulating PCSK9),tolerability in mice (in words) [3],LDLR protein level change vs. basal (LDLR protein; 10 µM),PCSK9 protein level change vs. basal (PCSK9 protein) [%],"decrease of secreted PCSK9 vs. basal (secreted PCSK9 [1]; 10 μM, HepG2, 24 h) [%]","decrease of secreted PCSK9 vs. basal (secreted PCSK9 [1]; 25 μM, HepG2, 24 h) [%]"
"Cc1cc(NCc2ccc(C(F)(F)F)cc2)c(Br)c(=O)n1Cc1ccc(C(F)(F)F)cc1 [Compound 6b, 3‐Bromo‐6‐Methyl‐1‐(4‐(Trifluoromethyl)Benzyl)‐4‐((4‐(Trifluoromethyl)Benzyl)Amino)pyridin‐2(1H)‐One]",did not modulate its expression at all concentrations tested,93,2600 ± 1610,75,90,,,,,,,
Cc1cc(NCc2ccc(C(F)(F)F)cc2)cc(=O)n1Cc1ccc(C(F)(F)F)cc1 [Compound 5c],,,1700 ± 670,,,effectively reduced PCSK9 secretion,did not demonstrate a significant reduction in circulating PCSK9 levels,well tolerated,,,,
"Cc1cc2c(sc(=N)n2Cc2ccc(C(F)(F)F)cc2)c(=O)n1Cc1ccc(C(F)(F)F)cc1 [Compound 7, 2‐Imino‐6‐Methyl‐1,5‐Bis(4‐(Trifluoromethyl)benzyl)‐1,2‐Dihydrothiazolo[5,4‐c]pyridin‐4(5H)‐One]",,,4100 ± 360,,74,,,,+39%,−42,74,90
